Measured values from patent publication US12642865B2, “Toroidal mixed nanoparticle, method for preparing the same, and method for multifunctional delivery using the same” (China Medical University, priority 2022, dated 2026).

Key:
[1] = Hepatic and renal functional evaluation (serum); format: in vivo, mice; settings: after 16 d
Text: To investigate the efficacy of tumor inhibition, HCT116-cell-bearing 4-week-old female Balb-c/nude mice whose tumor sizes were up to 500 mm^3 were separated into 3 groups and each group contained 5 mice. […] The tumor size and weight were monitored every 2 to 3 days for 16-days post-injection. At day 16 post-injection, the mice were all euthanized, and their blood was collected. Meanwhile, the tumor and liver of mice were collected. The tumors were photographed after excluding the extreme ones. The blood samples were centrifugated under 3000 RPM for 10 min to obtain the serum samples for hepatic and renal functional evaluations. The hepatic function was assessed by the aspartate aminotransferase (AST) and alanine aminotransferase (ALT) values; the function of the kidneys was evaluated with the index of blood urea nitrogen (BUN) and creatinine.

[2] = tested on: HCT116-cell-bearing Balb-c/nude mice; assay: Histopathological analysis (H&E) of tumors and organs; format: in vivo; settings: Day 16; control: livers, lungs, and spleens
Experimental: The tumors and livers harvested from mice were preserved in 4% formalin overnight and the tumor and livers were embedded in paraffin to form paraffin tissue blocks. Afterwards, the tissues were sliced into 5-μm thick sections using a microtome (Leica RM 2145, Leica, Wetzlar, Germany). These sections were stained with H & E. The histopathological analysis was performed using an optical microscope (Optiphot-2, Nikon, Tokyo, Japan).

- renal functional index BUN [1]: 32.9 ± 9.3 mg/dL
- renal functional index Creatinine [1]: 0.44 ± 0.05 mg/dL
SMILES: NC1CCCCC1N.[Cl][Pt][Cl] (centres unmarked) [DACHPt, dichloro(1,2-diaminocyclohexane)platinum(II)]
- hepatic functional index ALT [1]: 40 ± 3 U/L
- hepatic functional index AST [1]: 134 ± 29 U/L
- tumor metastasis in organs (H&E sections) [2]: only observed in lungs
